From patent US8076352B2, “Administration of carboline derivatives useful in the treatment of cancer and other diseases” (PTC Therapeutics, Inc., priority 2004, dated 2011) come the findings set out here.

pEC50: −log10 of the molar value. Some results are limits rather than exact numbers.

This test concerns hypoxia-inducible endogenous VEGF expression in HeLa cells. Put plainly: Hypoxia-inducible endogenous VEGF expression, VEGF ELISA of conditioned media (dose-response EC50). The note with it: Homo sapiens, HeLa cells, hypoxic conditions (1% O2, 5% CO2). The class given is cell-based. The essentials: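 HeLa cells were cultured 24-48 h under hypoxia (1% O2, 5% CO2, balance N2) with or without compound. Conditioned-media VEGF protein was measured by ELISA against a standard curve. EC50 and CC50 come from percentage-inhibition curves over, e.g., seven concentrations, with maximal inhibition set at 100%.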
(An ELISA detects its analyte on a solid surface through an enzyme-linked reagent.)
The term pEC50 denotes the negative decadic logarithm of the EC50, by convention in mol/L. Higher therefore signals a low EC50. As to `O=C(Oc1ccc(F)cc1)N1CCc2c([nH]c3ccc(Cl)cc23)C1c1ccc(OCCn2ccnn2)cc1` (centres unmarked) [Compound 833], the pEC50 is 6.70 to 7.40.
Regarding `O=C(Oc1ccc(F)cc1)N1CCc2c([nH]c3ccc(Cl)cc23)C1c1ccc(OCCn2cncn2)cc1` (centres unmarked) [Compound 834], the pEC50 is 7.40 to 8.10.
Then `O=C(Oc1ccc(F)cc1)N1CCc2c([nH]c3ccc(Cl)cc23)C1c1ccc(OCCn2ccnc2)cc1` (centres unmarked) [Compound 835], with 6.70 to 7.40; and `O=C(Oc1ccc(F)cc1)N1CCc2c([nH]c3ccc(Cl)cc23)C1c1ccc(OCCn2cccn2)cc1` (centres unmarked) [Compound 836], with 7.40 to 8.10; and `O=C(Oc1ccc(Cl)cc1)N1CCc2c([nH]c3ccc(Cl)cc23)C1c1ccc(OCCn2ccnn2)cc1` (centres unmarked) [Compound 839], with 7.40 to 8.10.
Take `O=C(Oc1ccc(Cl)cc1)N1CCc2c([nH]c3ccc(Cl)cc23)C1c1ccc(OCCn2cncn2)cc1` (centres unmarked) [Compound 840]: the pEC50 was 7.40 to 8.10.
`CC(C)(C)OC(=O)N1CCC(COc2ccc(C3c4[nH]c5ccc(Cl)cc5c4CCN3C(=O)Oc3ccc(Cl)cc3)cc2)CC1` (centres unmarked) [Compound 845] showed a pEC50 of 6.70 to 7.40.
In the case of `NCC(O)COc1ccc(C2c3[nH]c4ccc(Cl)cc4c3CCN2C(=O)Oc2ccc(Cl)cc2)cc1` (centres unmarked) [Compound 846] it was 6.70 to 7.40; in that of `CC(=O)NCC(O)COc1ccc(C2c3[nH]c4ccc(Cl)cc4c3CCN2C(=O)Oc2ccc(Cl)cc2)cc1` (centres unmarked) [Compound 847], 7.40 to 8.10; in that of `COC(=O)NCC(O)COc1ccc(C2c3[nH]c4ccc(Cl)cc4c3CCN2C(=O)Oc2ccc(Cl)cc2)cc1` (centres unmarked) [Compound 848], greater than 8.10.
Then `CS(=O)(=O)NCC(O)COc1ccc(C2c3[nH]c4ccc(Cl)cc4c3CCN2C(=O)Oc2ccc(Cl)cc2)cc1` (centres unmarked) [Compound 849], with 7.40 to 8.10; and `CNCC(O)COc1ccc(C2c3[nH]c4ccc(Cl)cc4c3CCN2C(=O)Oc2ccc(Cl)cc2)cc1` (centres unmarked) [Compound 850], with 6.70 to 7.40; and `O=C(Oc1ccc(Cl)cc1)N1CCc2c([nH]c3ccc(Cl)cc23)C1c1ccc(OCC(O)Cn2ccnc2)cc1` (centres unmarked) [Compound 867], with 7.40 to 8.10.
Then `Cc1ccc(OC(=O)N2CCc3c([nH]c4ccc(Cl)cc34)C2c2ccc(OCCCn3cncn3)cc2)cc1` (centres unmarked) [Compound 882], with greater than 8.10.
Molecule `COc1ccc(OC(=O)N2CCc3c([nH]c4ccc(Cl)cc34)C2c2ccc(OCCCn3cncn3)cc2)cc1` (centres unmarked) [Compound 888] showed a pEC50 greater than 8.10.
Then `O=C(Oc1ccc(F)cc1)N1CCc2c([nH]c3ccc(Cl)cc23)C1c1ccc(OCCCn2ccnc2)cc1` (centres unmarked) [Compound 889], with greater than 8.10; and `O=C(Oc1ccccc1)N1CCc2c([nH]c3ccc(Cl)cc23)C1c1ccc(OCCCn2cncn2)cc1` (centres unmarked) [Compound 891], with greater than 8.10; and `O=C(Oc1ccc(F)cc1)N1CCc2c([nH]c3ccc(Cl)cc23)C1c1ccc(OCCCn2cncn2)cc1` (centres unmarked) [Compound 892], with greater than 8.10.
Then `O=C(Oc1ccc(Cl)cc1)N1CCc2c([nH]c3ccc(Cl)cc23)C1c1ccc(OCCCN2CCOCC2)cc1` (centres unmarked) [Compound 894], with greater than 8.10; and `Cc1ccc(OC(=O)N2CCc3c([nH]c4ccc(Cl)cc34)C2c2ccc(OCCCn3ccnc3)cc2)cc1` (centres unmarked) [Compound 900], with greater than 8.10; and `CC(=O)N1CCN(CCCOc2ccc(C3c4[nH]c5ccc(Cl)cc5c4CCN3C(=O)Oc3ccc(Cl)cc3)cc2)CC1` (centres unmarked) [Compound 903], with greater than 8.10.
Then `O=C(Oc1ccc(Cl)cc1)N1CCc2c([nH]c3ccc(Cl)cc23)C1c1ccc(OCC(O)CN2CCOCC2)cc1` (centres unmarked) [Compound 904], with greater than 8.10; and `COCCN(C)CCCOc1ccc(C2c3[nH]c4ccc(Cl)cc4c3CCN2C(=O)Oc2ccc(Cl)cc2)cc1` (centres unmarked) [Compound 908], with greater than 8.10; and `O=C(Oc1ccccc1)N1CCc2c([nH]c3ccc(Cl)cc23)C1c1ccc(OCCCn2ccnc2)cc1` (centres unmarked) [Compound 911], with greater than 8.10.
Consider `COCCN(CCOC)CC(O)COc1ccc(C2c3[nH]c4ccc(Cl)cc4c3CCN2C(=O)Oc2ccc(F)cc2)cc1` (centres unmarked) [Compound 913], for which the pEC50 was greater than 8.10.
Then `Cc1ccc(OC(=O)N2CCc3c([nH]c4ccc(Cl)cc34)C2c2ccc(OCCCCl)cc2)cc1` (centres unmarked) [Compound 915], with greater than 8.10.
Then `COCCN(CCCOc1ccc(C2c3[nH]c4ccc(Cl)cc4c3CCN2C(=O)Oc2ccc(Cl)cc2)cc1)CCOC` (centres unmarked) [Compound 916], with greater than 8.10; and `O=C(Oc1ccc(Cl)cc1)N1CCc2c([nH]c3ccc(Cl)cc23)C1c1ccc(OCCCn2ccnc2)cc1` (centres unmarked) [Compound 917], with greater than 8.10; and `COCCN(CCOC)CC(O)COc1ccc(C2c3[nH]c4ccc(Cl)cc4c3CCN2C(=O)Oc2ccc(Cl)cc2)cc1` (centres unmarked) [Compound 918], with greater than 8.10.
Turning to `COc1ccc(OC(=O)N2CCc3c([nH]c4ccc(Cl)cc34)C2c2ccc(OCCCn3ccnc3)cc2)cc1` (centres unmarked) [Compound 920], the pEC50 was greater than 8.10.
`O=C(Oc1ccc(Cl)cc1)N1CCc2c([nH]c3ccc(Cl)cc23)C1c1ccc(OCCCCl)cc1` (centres unmarked) [Compound 921] had a pEC50 greater than 8.10.
Then `O=C(Oc1ccc(F)cc1)N1CCc2c([nH]c3ccc(Cl)cc23)C1c1ccc(OCC(O)Cn2ccnc2)cc1` (centres unmarked) [Compound 922], with greater than 8.10; and `O=C(Oc1ccc(Cl)cc1)N1CCc2c([nH]c3ccc(Cl)cc23)C1c1ccc(OCC(O)CN2CCSCC2)cc1` (centres unmarked) [Compound 923], with greater than 8.10; and `O=C(Oc1ccc(F)cc1)N1CCc2c([nH]c3ccc(Cl)cc23)C1c1ccc(OCC(O)CN2CCSCC2)cc1` (centres unmarked) [Compound 925], with greater than 8.10.
Then `O=C(Oc1ccccc1Cl)N1CCc2c([nH]c3ccc(Cl)cc23)C1c1ccc(OCCCn2cncn2)cc1` (centres unmarked) [Compound 926], with greater than 8.10; and `CN1CCCC(COc2ccc(C3c4[nH]c5ccc(Cl)cc5c4CCN3C(=O)Oc3ccc(F)cc3)cc2)C1` (centres unmarked) [Compound 932], with greater than 8.10; and `O=C(Oc1ccc(Cl)cc1)N1CCc2c([nH]c3ccc(Cl)cc23)C1c1ccc(OCCCN2CCSCC2)cc1` (centres unmarked) [Compound 933], with greater than 8.10.
In the case of `O=C(Oc1ccccc1Cl)N1CCc2c([nH]c3ccc(Cl)cc23)C1c1ccc(OCCCn2ccnc2)cc1` (centres unmarked) [Compound 934] it was greater than 8.10.
On to `COCCN(C)CC(O)COc1ccc(C2c3[nH]c4ccc(Cl)cc4c3CCN2C(=O)Oc2ccc(F)cc2)cc1` (centres unmarked) [Compound 936], for which the negative logarithm of the EC50 (pEC50) was greater than 8.10.
Regarding `CCN(CC)CC(O)COc1ccc(C2c3[nH]c4ccc(Cl)cc4c3CCN2C(=O)Oc2ccc(Cl)cc2)cc1` (centres unmarked) [Compound 938], the pEC50 is greater than 8.10.
In the case of `O=C(Oc1ccc(F)cc1)N1CCc2c([nH]c3ccc(Cl)cc23)C1c1ccc(OCC(O)Cn2ccnn2)cc1` (centres unmarked) [Compound 941] it was greater than 8.10; in that of `O=C(Oc1ccc(Cl)cc1)N1CCc2c([nH]c3ccc(Cl)cc23)C1c1ccc(OCCCN2CCN(CCO)CC2)cc1` (centres unmarked) [Compound 942], 7.40 to 8.10; in that of `COc1ccc(OC(=O)N2CCc3c([nH]c4ccc(Cl)cc34)C2c2ccc(OCCCCl)cc2)cc1` (centres unmarked) [Compound 944], 7.40 to 8.10.
For `CCN(CC)CCCOc1ccc(C2c3[nH]c4ccc(Cl)cc4c3CCN2C(=O)Oc2ccc(Cl)cc2)cc1` (centres unmarked) [Compound 946], the pEC50 is 7.40 to 8.10.
The molecule `Cc1ccc(OC(=O)N2CCc3c([nH]c4ccc(Cl)cc34)C2c2ccc(OCC3CCCN(C)C3)cc2)cc1` (centres unmarked) [Compound 951] gave a pEC50 of 7.40 to 8.10.
For `CN1CCCC(COc2ccc(C3c4[nH]c5ccc(Cl)cc5c4CCN3C(=O)Oc3ccccc3)cc2)C1` (centres unmarked) [Compound 952], the pEC50 was 7.40 to 8.10.
Turning to `CC(C)NCCCOc1ccc(C2c3[nH]c4ccc(Cl)cc4c3CCN2C(=O)Oc2ccc(Cl)cc2)cc1` (centres unmarked) [Compound 953], the pEC50 was 7.40 to 8.10.
Then `CCS(=O)(=O)Nc1ccc(C2c3[nH]c4ccc(Cl)cc4c3CCN2C(=O)Oc2ccc(Cl)cc2)cc1` (centres unmarked) [Compound 958], with 7.40 to 8.10.
For the molecule `O=C(Oc1ccc(Cl)cc1)N1CCc2c([nH]c3ccc(Cl)cc23)C1c1ccc(OCC(O)CN2CCN(CCO)CC2)cc1` (centres unmarked) [Compound 960], the pEC50 was 7.40 to 8.10.
Then `CN1CCN(CCCOc2ccc(C3c4[nH]c5ccc(Cl)cc5c4CCN3C(=O)Oc3ccc(Cl)cc3)cc2)CC1` (centres unmarked) [Compound 961], with 7.40 to 8.10.
Consider `CN1CCN(CC(O)COc2ccc(C3c4[nH]c5ccc(Cl)cc5c4CCN3C(=O)Oc3ccc(F)cc3)cc2)CC1` (centres unmarked) [Compound 963], for which the pEC50 is 7.40 to 8.10.
Then `COCCN(C)CC(O)COc1ccc(C2c3[nH]c4ccc(Cl)cc4c3CCN2C(=O)Oc2ccc(Cl)cc2)cc1` (centres unmarked) [Compound 964], with 7.40 to 8.10; and `CN1CCCC(COc2ccc(C3c4[nH]c5ccc(Cl)cc5c4CCN3C(=O)Oc3ccc(Cl)cc3)cc2)C1` (centres unmarked) [Compound 966], with 7.40 to 8.10.
In the case of `CN1CCN(CC(O)COc2ccc(C3c4[nH]c5ccc(Cl)cc5c4CCN3C(=O)Oc3ccc(Cl)cc3)cc2)CC1` (centres unmarked) [Compound 970] it was 7.40 to 8.10; in that of `O=C(Oc1ccc(Cl)cc1)N1CCc2c([nH]c3ccc(Cl)cc23)C1c1ccc(OCC(O)Cn2ccnn2)cc1` (centres unmarked) [Compound 973], 7.40 to 8.10.
Then `CS(=O)(=O)Nc1ccc(C2c3[nH]c4ccc(Cl)cc4c3CCN2C(=O)Oc2ccc(Cl)cc2)cc1` (centres unmarked) [Compound 974], with 6.70 to 7.40.
Consider `CN1CCCC(COc2ccc(C3c4[nH]c5ccc(Cl)cc5c4CCN3C(=O)Oc3ccccc3Cl)cc2)C1` (centres unmarked) [Compound 976], for which the pEC50 was 6.70 to 7.40.
Then `CC(C)NCC(O)COc1ccc(C2c3[nH]c4ccc(Cl)cc4c3CCN2C(=O)Oc2ccc(Cl)cc2)cc1` (centres unmarked) [Compound 977], with 6.70 to 7.40.
Molecule `COc1ccc(OC(=O)N2CCc3c([nH]c4ccc(Cl)cc34)C2c2ccc(OCC3CCCN(C)C3)cc2)cc1` (centres unmarked) [Compound 981] had a negative-log EC50 (pEC50) of 6.70 to 7.40.
In the case of `O=C(Oc1ccc(Cl)cc1)N1CCc2c([nH]c3ccc(Cl)cc23)C1c1ccc(N2CCCC2)cc1` (centres unmarked) [Compound 984] it was 6.00 to 6.70; in that of `CC(=O)N1CCN(CCCOc2ccc(C3c4[nH]c5ccc(Cl)cc5c4CCN3C(=O)Oc3ccc(F)cc3)cc2)CC1` (centres unmarked) [Compound 988], greater than 8.10.
`O=C(Oc1ccc(F)cc1)N1CCc2c([nH]c3ccc(Cl)cc23)C1c1ccc(OCCCN2CCOCC2)cc1` (centres unmarked) [Compound 989] had a pEC50 greater than 8.10.
